Laboratory results from patent US8846935B2, “Indazoles” (GlaxoSmithKline LLC, priority 2010, dated 2014).
Counter-ions that a name gives are not always drawn.

Target: T1, EZH2 within the PRC2 complex (Homo sapiens, UniProt Q15910)
T1 construct: FLAG; made in house; host or cells: Sf9 cells
Experiment: EZH2 methyltransferase scintillation proximity assay (SPA)
Assay type: biochemical
Conditions: methyltransferase activity of EZH2 in human PRC2 complex, 3H-SAM, HeLa mononucleosomes
Protocol: Compounds contained herein were evaluated for their ability to inhibit the methyltransferase activity of EZH2 within the PRC2 complex. Human PRC2 complex was prepared by co-expressing each of the 5 member proteins (FLAG-EZH2, EED, SUZ12, RbAp48, AEBP2) in Sf9 cells followed by co-purification. Enzyme activity was measured in a scintillation proximity assay (SPA) where a tritiated methyl group is transferred from 3H-SAM to a lysine residue on Histone H3 of a mononucleosome, purified from HeLa cells. Mononucleosomes were captured on SPA beads and the resulting signal is read on a ViewLux plate reader.
Part A. Compound Preparation
• 1. Prepare 10 mM stock of compounds from solid in 100% DMSO. • 2. Set up an 11-point serial dilution (1:3 dilution, top concentration 10 mM) in 100% DMSO for each test compound in a 384 well plate leaving columns 6 and 18 for DMSO controls. • 3. Dispense 100 nL of compound from the dilution plate into reaction plates (Grenier Bio-One, 384-well, Cat#784075). Part B. Reagent Preparation Prepare the following solutions: • 1. 50 mM Tris-HCl, pH 8: Per 1 L of base buffer, combine 1 M Tris-HCl, pH 8 (50 mL) and distilled water (950 mL). • 2. 1× Assay Buffer: Per 10 mL of 1× Assay Buffer, combine 50 mM Tris-HCl, pH 8 (9958 uL), 1 M MgCl2 (20 uL), 2 M DTT (20 uL), and 10% Tween-20 (2 uL) to provide a final concentration of 50 mM Tris-HCl, pH 8, 2 mM MgCl2, 4 mM DTT, 0.002% Tween-20. • 3. 2× Enzyme Solution: Per 10 mL of 2× Enzyme Solution, combine 1× Assay Buffer and PRC2 complex to provide a final enzyme concentration of 10 nM. • 4. SPA Bead Suspension: Per 1 mL of SPA Bead Suspension, combine PS-PEI coated LEADSeeker beads (40 mg) and ddH2O (1 mL) to provide a final concentration of 40 mg/mL. • 5. 2× Substrate Solution: Per 10 mL of 2× Substrate Solution, combine 1× Assay Buffer (9728.55 uL), 800 ug/mL mononucleosomes (125 uL), 1 mM cold SAM (4 uL), and 7.02 uM 3H-SAM (142.45 uL; 0.55 mCi/mL) to provide a final concentration of 5 ug/mL nucleosomes, 0.2 uM cold SAM, and 0.05 uM 3H-SAM. • 6. 2.67× Quench/Bead Mixture: Per 10 mL of 2.67× Quench/Bead Mixture, combine ddH2O (9358 uL), 10 mM cold SAM (267 uL), 40 mg/mL Bead Suspension (375 uL) to provide a final concentration of 100 uM cold SAM and 0.5 mg/mL SPA beads. Part C. Assay Reaction in 384-well Grenier Bio-One Plates Compound Addition • 1. Dispense […] of 100× Compound to test wells (as noted above). • 2. Dispense […] of 100% DMSO to columns 6 & 18 for high and low controls, respectively. Assay • 1. Dispense 5 uL/well of 1× Assay Buffer to column 18 (low control reactions). • 2. Dispense 5 uL/well of 2× Enzyme Solution to columns 1-17, 19-24. • 3. Spin assay plates for ˜1 minute at 500 rpm. • 4. Stack the assay plates, covering the top plate. • 5. Incubate the compound/DMSO with the enzyme for 30 minutes at room temperature. • 6. Dispense 5 uL/well of 2× Substrate Solution to columns 1-24. • 7. Spin assay plates for ˜1 minute at 500 rpm. • 8. Stack the assay plates, covering the top plate. • 9. Incubate the assay plates at room temperature for 1 hour. Quench/Bead Addition • 1. Dispense 5 uL/well of the 3× Quench/Bead Mixture to columns 1-24. • 2. Seal the top of each assay plate with adhesive TopSeal. • 3. Spin assay plates for ˜1 minute at 500 rpm. • 4. Equilibrate the plates for >20 min. Read Plates • 1. Read the assay plates on the Viewlux Plate Reader utilizing the 613 nm emission filter with a 300 s read time. Reagent addition can be done manually or with automated liquid handler. *The final DMSO concentration in this assay is 1%. *The positive control is in column 6; negative control is in column 18. *Final starting concentration of compounds is 100 μM. Part D. Data Analysis
Percent inhibition was calculated relative to the DMSO control for each compound concentration and the resulting values were fit using standard IC50 fitting parameters within the ABASE data fitting software package.

T1 sequence (Q15910 whole entry): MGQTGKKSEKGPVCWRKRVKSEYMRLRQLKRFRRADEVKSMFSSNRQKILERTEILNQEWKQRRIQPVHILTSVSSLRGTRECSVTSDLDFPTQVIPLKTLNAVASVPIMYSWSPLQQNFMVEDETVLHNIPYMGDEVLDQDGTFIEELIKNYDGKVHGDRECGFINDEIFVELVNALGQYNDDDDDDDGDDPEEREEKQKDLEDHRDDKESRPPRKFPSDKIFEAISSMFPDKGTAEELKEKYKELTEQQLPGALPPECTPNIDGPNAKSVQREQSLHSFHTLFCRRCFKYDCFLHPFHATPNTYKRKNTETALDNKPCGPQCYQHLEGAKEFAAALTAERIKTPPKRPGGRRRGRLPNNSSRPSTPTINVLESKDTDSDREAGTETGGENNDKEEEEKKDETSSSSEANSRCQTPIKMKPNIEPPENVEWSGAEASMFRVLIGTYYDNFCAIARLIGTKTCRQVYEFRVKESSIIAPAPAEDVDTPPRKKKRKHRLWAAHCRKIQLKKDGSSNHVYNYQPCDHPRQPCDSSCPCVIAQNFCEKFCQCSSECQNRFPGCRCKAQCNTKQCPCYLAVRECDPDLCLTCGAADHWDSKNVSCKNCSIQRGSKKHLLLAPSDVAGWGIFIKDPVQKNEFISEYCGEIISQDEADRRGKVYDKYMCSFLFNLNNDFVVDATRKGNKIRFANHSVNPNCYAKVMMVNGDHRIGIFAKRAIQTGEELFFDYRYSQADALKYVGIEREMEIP
T1 sequence (O75530 whole entry partner): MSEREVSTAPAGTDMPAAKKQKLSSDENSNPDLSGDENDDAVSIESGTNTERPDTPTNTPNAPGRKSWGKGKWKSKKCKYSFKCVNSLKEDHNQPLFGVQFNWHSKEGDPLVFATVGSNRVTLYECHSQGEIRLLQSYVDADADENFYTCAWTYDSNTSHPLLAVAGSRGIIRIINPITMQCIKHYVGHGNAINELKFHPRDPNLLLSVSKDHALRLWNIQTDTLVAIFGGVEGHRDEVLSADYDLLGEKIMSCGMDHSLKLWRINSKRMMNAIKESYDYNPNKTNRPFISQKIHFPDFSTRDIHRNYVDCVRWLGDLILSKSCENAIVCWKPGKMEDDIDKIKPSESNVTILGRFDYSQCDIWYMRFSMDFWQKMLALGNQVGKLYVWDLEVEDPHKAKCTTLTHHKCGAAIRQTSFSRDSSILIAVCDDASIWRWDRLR
T1 sequence (Q15022 whole entry partner): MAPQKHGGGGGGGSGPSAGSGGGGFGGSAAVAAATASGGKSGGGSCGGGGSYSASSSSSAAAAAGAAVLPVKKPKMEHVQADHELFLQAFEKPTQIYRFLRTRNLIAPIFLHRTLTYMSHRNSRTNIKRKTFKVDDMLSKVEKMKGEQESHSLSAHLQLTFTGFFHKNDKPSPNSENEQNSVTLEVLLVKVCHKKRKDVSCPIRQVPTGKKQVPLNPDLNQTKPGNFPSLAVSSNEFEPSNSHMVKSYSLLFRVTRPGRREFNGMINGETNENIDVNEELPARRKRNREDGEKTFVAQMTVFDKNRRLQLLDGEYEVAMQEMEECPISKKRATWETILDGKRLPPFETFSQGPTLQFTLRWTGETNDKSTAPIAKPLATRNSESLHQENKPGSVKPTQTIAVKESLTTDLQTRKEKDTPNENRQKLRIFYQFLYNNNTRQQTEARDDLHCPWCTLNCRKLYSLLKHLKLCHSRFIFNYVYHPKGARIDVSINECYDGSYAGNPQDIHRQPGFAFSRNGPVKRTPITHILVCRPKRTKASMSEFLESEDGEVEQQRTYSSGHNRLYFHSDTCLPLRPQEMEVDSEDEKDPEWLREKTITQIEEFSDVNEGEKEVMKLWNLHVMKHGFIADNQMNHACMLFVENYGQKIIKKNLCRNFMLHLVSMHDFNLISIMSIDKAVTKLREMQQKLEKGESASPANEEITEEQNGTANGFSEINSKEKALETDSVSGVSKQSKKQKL
T1 sequence (Q09028 whole entry partner): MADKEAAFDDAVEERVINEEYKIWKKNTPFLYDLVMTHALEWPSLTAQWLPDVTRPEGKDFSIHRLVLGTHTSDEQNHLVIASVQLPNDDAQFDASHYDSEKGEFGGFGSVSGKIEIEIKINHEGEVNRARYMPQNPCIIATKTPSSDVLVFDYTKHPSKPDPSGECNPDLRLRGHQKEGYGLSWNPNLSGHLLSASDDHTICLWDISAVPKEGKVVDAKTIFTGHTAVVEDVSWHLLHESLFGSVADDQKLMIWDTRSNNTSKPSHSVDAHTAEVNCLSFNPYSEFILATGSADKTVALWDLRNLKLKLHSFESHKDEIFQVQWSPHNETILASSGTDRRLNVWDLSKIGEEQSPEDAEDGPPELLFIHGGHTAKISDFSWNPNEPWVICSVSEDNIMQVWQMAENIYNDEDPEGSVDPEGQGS
T1 sequence (Q6ZN18 whole entry partner): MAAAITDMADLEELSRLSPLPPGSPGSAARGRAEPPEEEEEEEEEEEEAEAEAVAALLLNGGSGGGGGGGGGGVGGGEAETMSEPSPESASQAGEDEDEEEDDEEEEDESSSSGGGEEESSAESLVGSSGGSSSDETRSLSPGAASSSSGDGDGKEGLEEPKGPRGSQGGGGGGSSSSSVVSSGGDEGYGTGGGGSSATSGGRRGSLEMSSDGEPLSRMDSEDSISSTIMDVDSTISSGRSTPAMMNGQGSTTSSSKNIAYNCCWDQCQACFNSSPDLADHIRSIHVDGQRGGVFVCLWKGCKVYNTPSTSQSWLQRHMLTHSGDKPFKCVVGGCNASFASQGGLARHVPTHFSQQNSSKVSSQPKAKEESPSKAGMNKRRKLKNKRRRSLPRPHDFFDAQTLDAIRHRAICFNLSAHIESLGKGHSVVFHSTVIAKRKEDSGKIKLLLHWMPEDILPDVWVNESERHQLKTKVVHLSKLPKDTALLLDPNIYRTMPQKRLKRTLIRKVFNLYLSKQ

SMILES | IC50 [nM]
CCc1cc(C)[nH]c(=O)c1CNC(=O)c1cc(Br)cc2c1cnn2C(C)C [Example 4, 6-bromo-N-((4-ethyl-6-methyl-2-oxo-1,2-dihydropyridin-3-yl)methyl)-1-isopropyl-1H-indazole-4-carboxamide] | 25
Cc1cc(Cc2ccccc2)c(CNC(=O)c2cc(Br)cc3c2cnn3C(C)C)c(=O)[nH]1 [Example 5, 6-bromo-1-(1-methylethyl)-N-{[6-methyl-2-oxo-4-(phenylmethyl)-1,2-dihydro-3-pyridinyl]methyl}-1H-indazole-4-carboxamide] | 8
Cc1cc(Cc2ccccc2)c(CNC(=O)c2cccc3c2cnn3C(C)C)c(=O)[nH]1 [Example 7, 1-(1-methylethyl)-N-{[6-methyl-2-oxo-4-(phenylmethyl)-1,2-dihydro-3-pyridinyl]methyl}-1H-indazole-4-carboxamide] | 40
CCCc1cc(C)[nH]c(=O)c1CNC(=O)c1cc(-c2cncnc2)cc2c1cnn2C(C)C [Example 22, 1-(1-methylethyl)-N-[(6-methyl-2-oxo-4-propyl-1,2-dihydro-3-pyridinyl)methyl]-6-(5-pyrimidinyl)-1H-indazole-4-carboxamide] | 20
CCCc1cc(C)[nH]c(=O)c1CNC(=O)c1cc(-c2ccc(N3CCN(C)CC3)nc2)cc2c1cnn2C(C)C [Example 24, 1-(1-methylethyl)-N-[(6-methyl-2-oxo-4-propyl-1,2-dihydro-3-pyridinyl)methyl]-6-[6-(4-methyl-1-piperazinyl)-3-pyridinyl]-1H-indazole-4-carboxamide] | 5
CCCc1cc(C)[nH]c(=O)c1CNC(=O)c1cc(-c2ccsc2)cc2c1cnn2C(C)C [Example 31, N-((1,2-dihydro-6-methyl-2-oxo-4-propylpyridin-3-yl)methyl)-1-isopropyl-6-(thiophen-3-yl)-1H-indazole-4-carboxamide] | 20
Cc1cc(C)c(CNC(=O)c2cc(-c3ccc(OCCN(C)C)cc3)cc3c2cnn3C(C)C)c(=O)[nH]1 [Example 8, N-((4,6-dimethyl-2-oxo-1,2-dihydropyridin-3-yl)methyl)-6-(4-(2-(dimethylamino)ethoxy)phenyl)-1-isopropyl-1H-indazole-4-carboxamide] | 10
CCCc1cc(C)[nH]c(=O)c1CNC(=O)c1cc(-c2ccc(N3CCOCC3)nc2)cc2c1cnn2C(C)C [Example 19, 1-(1-methylethyl)-N-[(6-methyl-2-oxo-4-propyl-1,2-dihydro-3-pyridinyl)methyl]-6-[6-(4-morpholinyl)-3-pyridinyl]-1H-indazole-4-carboxamide] | 6
CCCc1cc(C)[nH]c(=O)c1CNC(=O)c1cc(-c2ccc(N)nc2)cc2c1cnn2C(C)C [Example 21, 6-(6-amino-3-pyridinyl)-1-(1-methylethyl)-N-[(6-methyl-2-oxo-4-propyl-1,2-dihydro-3-pyridinyl)methyl]-1H-indazole-4-carboxamide] | 5
Cc1cc(C(C)C)c(CNC(=O)c2cc(-c3ccc(N4CCNCC4)nc3)cc3c2cnn3C(C)C)c(=O)[nH]1 [Example 12, 1-isopropyl-N-((4-isopropyl-6-methyl-2-oxo-1,2-dihydropyridin-3-yl)methyl)-6-(6-(piperazin-1-yl)pyridin-3-yl)-1H-indazole-4-carboxamide] | 4
CCc1cc(C)[nH]c(=O)c1CNC(=O)c1cc(-c2ccc(N3CCN(C)CC3)nc2)cc2c1cnn2C(C)C [Example 16, N-((4-ethyl-6-methyl-2-oxo-1,2-dihydropyridin-3-yl)methyl)-1-isopropyl-6-(6-(4-methylpiperazin-1-yl)pyridin-3-yl)-1H-indazole-4-carboxamide] | 3
CCCc1cc(C)[nH]c(=O)c1CNC(=O)c1cc(-c2ccc(OC)nc2)cc2c1cnn2C(C)C [Example 23, 1-(1-methylethyl)-N-[(6-methyl-2-oxo-4-propyl-1,2-dihydro-3-pyridinyl)methyl]-6-[6-(methyloxy)-3-pyridinyl]-1H-indazole-4-carboxamide] | 8
Cc1cc(C)c(CNC(=O)c2cc(-c3ccc(N4CCNCC4)nc3)cc3c2cnn3C(C)C)c(=O)[nH]1 [Example 10, N-[(4,6-dimethyl-2-oxo-1,2-dihydro-3-pyridinyl)methyl]-1-(1-methylethyl)-6-[6-(1-piperazinyl)-3-pyridinyl]-1H-indazole-4-carboxamide] | 13
Cc1cc(C)c(CNC(=O)c2cc(-c3cccc(CN(C)C)c3)cc3c2cnn3C(C)C)c(=O)[nH]1 [Example 29, 6-{3-[(dimethylamino)methyl]phenyl}-N-[(4,6-dimethyl-2-oxo-1,2-dihydro-3-pyridinyl)methyl]-1-(1-methylethyl)-1H-indazole-4-carboxamide] | 40
Cc1cc(C)c(CNC(=O)c2cc(Br)cc3c2cnn3C(C)C)c(=O)[nH]1 [Example 3, 6-Bromo-N-[(4,6-dimethyl-2-oxo-1,2-dihydro-3-pyridinyl)methyl]-1-(1-methylethyl)-1H-indazole-4-carboxamide] | 158
Cc1cc(C)c(CNC(=O)c2cc(-c3cnn(C)c3)cc3c2cnn3C(C)C)c(=O)[nH]1 [Example 13, N-((4,6-dimethyl-2-oxo-1,2-dihydropyridin-3-yl)methyl)-1-isopropyl-6-(1-methyl-1H-pyrazol-4-yl)-1H-indazole-4-carboxamide] | 126
CCCc1cc(C)[nH]c(=O)c1CNC(=O)c1cc(-c2ccc(CN(C)C)cc2)cc2c1cnn2C(C)C [Example 33, 6-{4-[(dimethylamino)methyl]phenyl}-1-(1-methylethyl)-N-[(6-methyl-2-oxo-4-propyl-1,2-dihydro-3-pyridinyl)methyl]-1H-indazole-4-carboxamide hydrochloride salt] | 5
CCCc1cc(C)[nH]c(=O)c1CNC(=O)c1cc(-c2ccc(N3CCNCC3)nc2)cc2c1cnn2C(C)C [Example 15, 1-(1-methylethyl)-N-[(6-methyl-2-oxo-4-propyl-1,2-dihydro-3-pyridinyl)methyl]-6-[6-(1-piperazinyl)-3-pyridinyl]-1H-indazole-4-carboxamide] | 2
CCCc1cc(C)[nH]c(=O)c1CNC(=O)c1cc(-c2cccnc2C)cc2c1cnn2C(C)C [Example 25, 1-(1-methylethyl)-N-[(6-methyl-2-oxo-4-propyl-1,2-dihydro-3-pyridinyl)methyl]-6-(2-methyl-3-pyridinyl)-1H-indazole-4-carboxamide] | 13
CCCc1cc(C)[nH]c(=O)c1CNC(=O)c1cc(-c2cnc(N)nc2)cc2c1cnn2C(C)C [Example 20, 6-(2-amino-5-pyrimidinyl)-1-(1-methylethyl)-N-[(6-methyl-2-oxo-4-propyl-1,2-dihydro-3-pyridinyl)methyl]-1H-indazole-4-carboxamide] | 10
Cc1cc(C)c(CNC(=O)c2cc(-c3ccc(N4CCNCC4)cc3)cc3c2cnn3C(C)C)c(=O)[nH]1 [Example 9, N-[(4,6-dimethyl-2-oxo-1,2-dihydro-3-pyridinyl)methyl]-1-(1-methylethyl)-6-[4-(1-piperazinyl)phenyl]-1H-indazole-4-carboxamide] | 16
